Experimental data: US7273694B2, “Method and apparatus for reducing pathogens in a biological sample” (Safety Art, LLC, priority 2001, dated 2007)
Where two headings read alike, the source gives them in different places.

What was measured:
[1] = tested on: Brucella abortus Strain 19; type: cell-based; conditions: Strain 19 [vaccine strain]
[2] = tested on: Campylobacter fetus; test: Antibiotic sensitivity of bacterial isolate; type: cell-based
[3] = tested on: fresh semen of domestic bulls (Bos taurus)
[4] = tested on: fresh semen of gaur (Bos gaur) bulls
[5] = tested on: cryopreserved bovine (Bos gaurus) sperm

| Compound | sensitivity of B. abortus to antibiotic [1] | sensitivity of C. fetus to antibiotic ([2]; laboratory isolate [4914]) | sensitivity of C. fetus to antibiotic [2] | detrimental effects on sperm (motility, viability, acrosomal integrity) [3] | detrimental effects on sperm (motility, viability, acrosomal integrity) [4] | detrimental effects of increasing the concentration [5] |
| --- | --- | --- | --- | --- | --- | --- |
| CCC[C@@H]1C[C@@H](C(=O)N[C@@H]([C@H]2O[C@H](SC)[C@H](O)[C@@H](O)[C@H]2O)[C@@H](C)O)N(C)C1 [lincomycin] | resistant | sensitive |  |  |  |  |
| gentamicin | sensitive |  | sensitive |  |  |  |
| CC[C@H]1OC(=O)C[C@@H](O)[C@H](C)[C@@H](O[C@@H]2O[C@H](C)[C@@H](O[C@H]3C[C@@](C)(O)[C@@H](O)[C@H](C)O3)[C@H](N(C)C)[C@H]2O)[C@@H](CC=O)C[C@@H](C)C(=O)/C=C/C(C)=C/[C@@H]1CO[C@@H]1O[C@H](C)[C@@H](O)[C@@H](OC)[C@H]1OC [tylosin] | intermediate | intermediate |  |  |  |  |
| trypsin |  |  |  | no detrimental affects | no detrimental affects | no detrimental effects |
| CN[C@@H]1[C@H](O)[C@H](NC)[C@H]2O[C@@]3(O)C(=O)C[C@@H](C)O[C@H]3O[C@@H]2[C@H]1O [spectinomycin] | sensitive | intermediate |  |  |  |  |
